From patent US20080200470A1, “Diaza- or Thiazadione Derivatives With Neuroprotective Activity” (Schwartz Pharma S.L, priority 2005, published 2008)
Counter-ions that a name gives are not always drawn. Marks after values point to notes of the source that are not given here.

Key:
[1] = system: primary cultures of rat hippocampus; assay: Neurotoxicity due to deprivation of trophic factors (serum deprivation), MTT; type: cell-based; details: serum-free medium 48 hours
Method: (§1) The capacity to prevent neurotoxicity induced by hypoxia/hypoglycaemia in primary cultures of rat hippocampus (E18) was determined. […] After centrifuging at 700 g, the pellet was mechanically redispersed. The density of the cellular suspension was measured and aliquots were taken to culture on Petri dishes, previously coated with poly-lysine, using the same medium. […] Before the hypoxia, the compounds to be studied were added at variable times and concentrations.
In this case, an Eagle medium (DMEM) modified with 10% of calf serum was initially used and, after 10 days, the cultures were transferred to the DMEM culture deprived of calf serum.

[2] = system: primary cultures of rat hippocampus; assay: Neurotoxicity induced by hypoxia/hypoglycaemia (oxygen-glucose deprivation), MTT; type: cell-based; details: glucose-free medium, 2 hours 95% N2/5% CO2, MTT
Method: as §1

[3] = system: cerebral infarction after intraluminal occlusion of the middle cerebral artery (MCA) in rats; assay: Focal ischemic model in rats, occlusion of the middle cerebral artery; type: in vivo; details: rat, 40 μg/kg intravenously, 24 hours after ischemic damage
Method: The rats were anaesthetised with halotan, maintaining their temperature at 37.5° C. using an electric blanket connected to a rectal probe and cannulating the left femoral artery to monitor blood pressure. The right carotid artery was exposed, occluding the extra-cranial branches, and a blunt nylon filament was introduced through the external carotid until reaching the level when the middle cerebral artery (MCA) branches.
The selected compounds were administered intravenously. 24 Hours after the ischemic damage, the rats were anaesthetised with ether, they were perfused with saline solution and were then decapitated, extracting the brains that were cut into 1.5 mm coronal slices. The slices were then incubated in 4% triphenyltetrazolium chloride (TTC), which reacts with the intact mitochondrial enzymes producing a red colour which contrasts with the paleness of the infracted area, permitting it to be viewed, subsequently maintaining it in 10% formalin. The volume of cerebral infarction (mm^3) was calculated by measuring, in an image analyser, the affected area in the areas of cerebral cortex irrigated by the MCA and in the striatum and multiplying the average value obtained in each slice by the thickness thereof.

Row | Compound | melting point [°C] | further results
1 | O=C1C2CCCCN2C(=O)N1CCCCNCc1ccc2ccccc2n1 (stereo not shown) (as salt: salt) [kk, 2-[4-[(2-Quinolyl)methylamino]butyl]-1,3-dioxoperhydroimidazo[1,5-a]pyridine] | 206 to 208 | –
2 | O=C1C2CCCCN2C(=O)N1CCCCCCNCc1ccc2ccccc2n1 (stereo not shown) (as salt: salt) [ll, 2-[6-[(2-Quinolyl)methylamino]hexyl]-1,3-dioxoperhydroimidazo[1,5-a]pyridine] | 176 to 188 | –
3 | O=C1c2ccccc2S(=O)(=O)N1CCCCNC[C@H]1CCc2ccccc2O1 [(−)-BAYx3702] | – | Protection (%) Serum Deprivation [1]: 31.0 ± 2.9%; Protection (%) Oxygen-glucose deprivation [2]: 77.5 ± 8.6%; Infarcted Volumen Cortical [3]: 271.2 ± 54.7* mm^3; Infarcted Volumen Subcortical [3]: 105.5 ± 9.3 mm^3; Infarcted Volumen Total [3]: 376.7 ± 57.8* mm^3
4 | O=C1C2CCCN2C(=O)N1CCCCNCCOc1cccc(Br)c1 (stereo not shown) (as salt: salt) | 140 to 143 | –
5 | CCOc1ccccc1OCCNCCCCCCCCN1C(=O)CSC1=O (as salt: salt) [hh, 3-[8-[2-(o-Ethoxyphenoxy)ethylamino]octyl]-2,4-dioxothiazolidine] | 105 to 108 | –
6 | O=C1C2CCCN2C(=O)N1CCCCNCCOc1ccccc1Br (stereo not shown) (as salt: salt) [o, 2-[4-[2-(o-Bromophenoxy)ethylamino]butyl]-1,3-dioxoperhydropyrrolo[1,2-c]imidazole] | 98 to 99 | –
7 | CCc1ccccc1OCCNCCCCN1C(=O)C2CCCN2C1=O (stereo not shown) (as salt: salt) | 115 to 118 | –
8 | CCCN(CCC)C1CCc2cccc(O)c2C1 (stereo not shown) [Compound 8-OH-DPAT, 8-OH-DPAT] | – | Protection (%) Serum Deprivation [1]: 44.0 ± 1.4%; Protection (%) Oxygen-glucose deprivation [2]: 54.0 ± 3.5%
9 | (±)-BAYx3702 | – | Protection (%) Serum Deprivation [1]: 25.9 ± 2.5%
10 | O=C1C2CCCN2C(=O)N1CCCCNCc1ccc2ccccc2n1 (stereo not shown) | 125 to 126 | –
11 | CCOc1ccccc1OCCNCCCCN1C(=O)CSC1=O (as salt: salt) [ff, 3-[4-[2-(o-Ethoxyphenoxy)ethylamino]butyl]-2,4-dioxothiazolidine] | 70 to 74 | –
